Source: article PMC6631481, “De Novo Design and In Vitro Testing of Antimicrobial Peptides against Gram-Negative Bacteria” (Pharmaceuticals, 2019)
≈ marks a conversion by molar mass, not a printed value. Like-named read-outs stand apart in the source and are kept apart here. Non-standard residues stand in square brackets, D forms with d. Residues, ends and D or L forms follow the SMILES beside them. No end group written: not given here.

Assays:
Format in all cases: cell-based
[1] = tested on: Escherichia coli ATCC 25922
Experimental: The MICs of the designed cationic peptides against Escherichia coli ATCC 25,922 strains were determined by the broth microdilution method, as described by Hancock et al.. All MIC evaluations were performed using Luria Bertani (LB) medium. Briefly, a range of each peptide concentrations (100 µg/mL, 50 µg/mL, 25 µg/mL, 12.5 µg/mL, 6.25 µg/mL, 3.125 µg/mL) was prepared by serial dilution in NaCl-depleted LB medium and added to an equal volume (250 µl) of exponentially grown bacterial culture, so that final bacterial suspension contained 5 × 10^5 CFU/mL. The samples were incubated in 2 mL polypropylene microtubes at 37 °C overnight at 300 rpm. The MIC was defined as the concentration at which no microbial growth was detected spectrophotometrically, via readings of optical density (OD) at 600 nm (Biotek ELX800 microplate reader). Growth medium containing only bacterial cells was used as a negative control. Each MIC test was carried out in two replicates and repeated three times.

P. aeruginosa J4228 = experiment: microbe, parasite or virus in culture
Source text: (§1) The following strains were used: P. aeruginosa (ATCC 27,853 and resistant strains: J4228 (R: Meropenem), BB2013-100 (FQR)); A. baumannii (Josh 28 and resistant strain Josh 230 (OXA-48); E. cloacae (resistant strains: BB2012-181(R: Meropenem), BB2013-32 (FQR)); E. aerogenes (resistant strain St. L P63 (NDM-1), E. asburiae/cloacae (resistant strain St. L P23 (NDM-1), K. pneumonia (J3702 and resistant strains: BB2009-209 (KPC-2), Oschner KP-1), Escherichia coli (BW25113 (7636) and resistant strains: JW55034 (11430) (Tol neg), BB2013-30 (R:carbapenem), ARLG-1012 (NDM)). Susceptibility testing was performed using non-cation adjusted MHB broth and polypropylene plates. Testing was also done in the presence and absence of acetic acid and BSA.

P. aeruginosa ATCC 27853 = experiment: microbe, parasite or virus in culture
Source text: as §1

E. cloacae BB2012-181 = experiment: microbe, parasite or virus in culture
Source text: as §1

P. aeruginosa BB2013-100 = experiment: microbe, parasite or virus in culture
Source text: as §1

E. coli BB2013-30 = experiment: microbe, parasite or virus in culture
Source text: as §1

E. cloacae BB2013-32 = experiment: microbe, parasite or virus in culture
Source text: as §1

A. baumannii Josh 28 = experiment: microbe, parasite or virus in culture
Source text: as §1

E. coli ARLG-1012 = experiment: microbe, parasite or virus in culture
Source text: as §1

[2] = tested on: K. pneumoniae Oschner KP-1; experiment: microbe, parasite or virus in culture
Source text: as §1

E. aerogenes St. L P63 = experiment: microbe, parasite or virus in culture
Source text: as §1

E. coli BW25113 (7636) = experiment: microbe, parasite or virus in culture
Source text: as §1

K. pneumoniae BB2009-209 = experiment: microbe, parasite or virus in culture
Source text: as §1

A. baumannii Josh 230 = experiment: microbe, parasite or virus in culture
Source text: as §1

E. coli JW55034 (11430) = experiment: microbe, parasite or virus in culture; details: phenotype Tol neg, non-cation adjusted MHB broth, polypropylene plates, meropenem by standard CLSI method
Source text: as §1

K. pneumoniae J3702 = experiment: microbe, parasite or virus in culture
Source text: as §1

[3] = tested on: E. asburiae/cloacae St. L P23; experiment: organism not typed
Source text: as §1

Compound: GIKFFLKKLKKHI-NH2 [SP4]
- MIC At NaCl [1]: 25 to 50 µg/mL
- MIC Without NaCl [1]: 6.25 to 12.5 µg/mL
- MIC (P. aeruginosa J4228; J4228): 16 µg/mL
- MIC (P. aeruginosa ATCC 27853; ATCC 27853): 8 µg/mL
- MIC (E. cloacae BB2012-181; BB2012-181): >32 µg/mL
- MIC (P. aeruginosa BB2013-100; BB2013-100): 32 µg/mL
- MIC (E. coli BB2013-30; BB2013-30): 16 µg/mL
- MIC (E. cloacae BB2013-32; BB2013-32): 16 µg/mL
- MIC (A. baumannii Josh 28; Josh 28): 2 µg/mL
- MIC (E. coli ARLG-1012; ARLG-1012): 8 µg/mL
- MIC ([2]; Oschner KP-1): >32 µg/mL
- MIC (E. aerogenes St. L P63; St. L P63): 16 µg/mL
- MIC (E. coli BW25113 (7636); BW25113): 8 µg/mL
- MIC (K. pneumoniae BB2009-209; BB2009-209): >32 µg/mL
- MIC (A. baumannii Josh 230; Josh 230): 4 µg/mL
- MIC (E. coli JW55034 (11430)): 8 µg/mL
- MIC (K. pneumoniae J3702; J3702): 32 µg/mL
- MIC [3]: >32 µg/mL

Compound: KFRKFGKQVWVRL-NH2 [SP8]
- MIC At NaCl [1]: 12.5 to 25 µg/mL
- MIC Without NaCl [1]: 3.125 to 6.25 µg/mL

Compound: KVWSRLRKIFSTR-NH2 [SP9]
- MIC At NaCl [1]: 6.25 to 12.5 µg/mL
- MIC Without NaCl [1]: 3.125 to 6.25 µg/mL

Compound: RWIRWVWRKKLRI-NH2 [SP14]
- MIC At NaCl [1]: 12.5 to 25 µg/mL
- MIC Without NaCl [1]: 3.125 to 6.25 µg/mL

Compound: RLFIKKLKFITRR-NH2 [SP6]
- MIC At NaCl [1]: 25 to 50 µg/mL
- MIC Without NaCl [1]: 3.125 to 6.25 µg/mL

Compound: AIKIRKLFKKLLR-NH2 [SP1]
- MIC At NaCl [1]: 12.5 to 25 µg/mL
- MIC Without NaCl [1]: 3.125 to 6.25 µg/mL
- MIC (P. aeruginosa J4228; J4228): 8 µg/mL
- MIC (P. aeruginosa ATCC 27853; ATCC 27853): 4 µg/mL
- MIC (P. aeruginosa BB2013-100; BB2013-100): 32 µg/mL
- MIC (E. coli BB2013-30; BB2013-30): 16 µg/mL
- MIC (E. cloacae BB2013-32; BB2013-32): >32 µg/mL
- MIC (A. baumannii Josh 28; Josh 28): 4 µg/mL
- MIC (E. coli ARLG-1012; ARLG-1012): 8 µg/mL
- MIC ([2]; Oschner KP-1): >32 µg/mL
- MIC (E. coli BW25113 (7636); BW25113): 8 µg/mL
- MIC (K. pneumoniae BB2009-209; BB2009-209): >32 µg/mL
- MIC (A. baumannii Josh 230; Josh 230): 16 µg/mL
- MIC (E. coli JW55034 (11430)): 8 µg/mL
- MIC (K. pneumoniae J3702; J3702): >32 µg/mL
- MIC [3]: >32 µg/mL

Compound: CC[C@@H](C)[C@@H](NC(=O)[C@@H](Cc1c[nH]c2ccccc12)NC(=O)[C@H](N)CCCNC(=N)N)C(=O)N[C@H](CCCNC(=N)N)C(=O)N[C@H](Cc1c[nH]c2ccccc12)C(=O)N[C@@H](C(=O)N[C@H](Cc1c[nH]c2ccccc12)C(=O)N[C@H](CCCNC(=N)N)C(=O)N[C@H](CCCCN)C(=O)N[C@H](CCCCN)C(=O)N[C@H](CC(C)C)C(=O)N[C@H](CCCNC(=N)N)C(N)=O)C(C)C [SP15D] (H-[dR][dW][dI][dR][dW][dV][dW][dR][dK][dK][dL][dR]-NH2)
- MIC At NaCl [1]: 0.78 to 1.56 µg/mL
- MIC Without NaCl [1]: 0.39 to 0.78 µg/mL

Compound: IRPAKLRWFKKIK-NH2 [SP5]
- MIC At NaCl [1]: >100 µg/mL
- MIC Without NaCl [1]: 12.5 to 25 µg/mL

Compound: RWIRWVWRKKLR-NH2 [SP15]
- MIC At NaCl [1]: 3.125 to 6.25 µg/mL
- MIC Without NaCl [1]: 0.78 to 1.56 µg/mL

Compound: GIKIRKLFKKLLR-NH2 [SP2]
- MIC At NaCl [1]: 6.25 to 12.5 µg/mL
- MIC Without NaCl [1]: 3.125 to 6.25 µg/mL

Compound: IRRWRLHWFRRAI-NH2 [SP11]
- MIC At NaCl [1]: 12.5 to 25 µg/mL
- MIC Without NaCl [1]: 3.125 to 6.25 µg/mL

Compound: AKVLKISRRAFRK-NH2 [SP10]
- MIC At NaCl [1]: >100 µg/mL
- MIC Without NaCl [1]: 25 to 50 µg/mL

Compound: C[C@@H](O)[C@H]1C(=O)N2C(C(=O)O)=C(S[C@@H]3CN[C@H](C(=O)N(C)C)C3)[C@H](C)[C@H]12 [Meropenem, reference compound]
- MIC (P. aeruginosa J4228; Pseudomonas aeruginosa, P. aeruginosa J4228, phenotype R: Meropenem, non-cation adjusted MHB broth, polypropylene plates, meropenem by standard CLSI method, read-out: MIC): > 64 µg/mL
- MIC (P. aeruginosa ATCC 27853; Pseudomonas aeruginosa, ATCC27853, P. aeruginosa ATCC 27853, phenotype CLSI Control, non-cation adjusted MHB broth, polypropylene plates, meropenem by standard CLSI method, read-out: MIC): 1 µg/mL (≈ 2.61 µM)
- MIC (E. cloacae BB2012-181; Enterobacter cloacae, BB2012181, E. cloacae BB2012-181, phenotype R: Meropenem, non-cation adjusted MHB broth, polypropylene plates, meropenem by standard CLSI method, read-out: MIC): 16 µg/mL (≈ 41.7 µM)
- MIC (P. aeruginosa BB2013-100; Pseudomonas aeruginosa, BB2013100, P. aeruginosa BB2013-100, phenotype FQR, non-cation adjusted MHB broth, polypropylene plates, meropenem by standard CLSI method, read-out: MIC): 1 µg/mL (≈ 2.61 µM)
- MIC (E. coli BB2013-30; Escherichia coli, BB201330, E. coli BB2013-30, phenotype R:carbapenem, non-cation adjusted MHB broth, polypropylene plates, meropenem by standard CLSI method, read-out: MIC): 1 µg/mL (≈ 2.61 µM)
- MIC (E. cloacae BB2013-32; Enterobacter cloacae, BB201332, E. cloacae BB2013-32, phenotype FQR, non-cation adjusted MHB broth, polypropylene plates, meropenem by standard CLSI method, read-out: MIC): 0.5 µg/mL (≈ 1.3 µM)
- MIC (A. baumannii Josh 28; Acinetobacter baumannii, JOSH28, A. baumannii Josh 28, phenotype Susceptible, non-cation adjusted MHB broth, polypropylene plates, meropenem by standard CLSI method, read-out: MIC): 32 µg/mL (≈ 83.4 µM)
- MIC (E. coli ARLG-1012; Escherichia coli, ARLG1012, E. coli ARLG-1012, phenotype NDM, non-cation adjusted MHB broth, polypropylene plates, meropenem by standard CLSI method, read-out: MIC): 64 µg/mL (≈ 167 µM)
- MIC ([2]; Klebsiella pneumoniae, K. pneumoniae Oschner KP-1, phenotype KPC-3, non-cation adjusted MHB broth, polypropylene plates, meropenem by standard CLSI method, read-out: MIC): 16 µg/mL (≈ 41.7 µM)
- MIC (E. aerogenes St. L P63; Klebsiella aerogenes, ST.LP63, E. aerogenes St. L P63, phenotype NDM-1, non-cation adjusted MHB broth, polypropylene plates, meropenem by standard CLSI method, read-out: MIC): 16 µg/mL (≈ 41.7 µM)
- MIC (E. coli BW25113 (7636); Escherichia coli, E. coli BW25113 (7636), phenotype WT, Tol parent strain, non-cation adjusted MHB broth, polypropylene plates, meropenem by standard CLSI method, read-out: MIC): ≤ 0.125 µg/mL
- MIC (K. pneumoniae BB2009-209; Klebsiella pneumoniae, BB2009209, K. pneumoniae BB2009-209, phenotype KPC-2, non-cation adjusted MHB broth, polypropylene plates, meropenem by standard CLSI method, read-out: MIC): 32 µg/mL (≈ 83.4 µM)
- MIC (A. baumannii Josh 230; Acinetobacter baumannii, JOSH230, A. baumannii Josh 230, phenotype OXA-48, non-cation adjusted MHB broth, polypropylene plates, meropenem by standard CLSI method, read-out: MIC): 1 µg/mL (≈ 2.61 µM)
- MIC (E. coli JW55034 (11430); Escherichia coli, read-out: MIC): ≤ 0.125 µg/mL
- MIC (K. pneumoniae J3702; Klebsiella pneumoniae, K. pneumoniae J3702, phenotype Susceptible, non-cation adjusted MHB broth, polypropylene plates, meropenem by standard CLSI method, read-out: MIC): ≤ 0.125 µg/mL
- MIC ([3]; E. asburiae/cloacae St. L P23, phenotype NDM-1, non-cation adjusted MHB broth, polypropylene plates, meropenem by standard CLSI method, read-out: MIC): 16 µg/mL (≈ 41.7 µM)

Compound: IRRRIRLIVRRQI-NH2 [SP12]
- MIC At NaCl [1]: 12.5 to 25 µg/mL
- MIC Without NaCl [1]: 1.56 to 3.125 µg/mL

Compound: HFKIRKRFVKKLV-NH2 [SP13]
- MIC At NaCl [1]: >100 µg/mL
- MIC Without NaCl [1]: 6.25 to 12.5 µg/mL

Compound: NAMRGAKRVWRHI-NH2 [SP7]
- MIC At NaCl [1]: >100 µg/mL
- MIC Without NaCl [1]: 50 to 100 µg/mL

Compound: CC[C@@H](C)[C@@H](NC(=O)[C@@H](C)N)C(=O)N[C@H](CCCCN)C(=O)N[C@@H](C(=O)N[C@H](CCCNC(=N)N)C(=O)N[C@H](CCCCN)C(=O)N[C@H](CC(C)C)C(=O)N[C@H](Cc1ccccc1)C(=O)N[C@H](CCCCN)C(=O)N[C@H](CCCCN)C(=O)N[C@H](CC(C)C)C(=O)N[C@H](CC(C)C)C(=O)N[C@H](CCCNC(=N)N)C(N)=O)[C@H](C)CC [SP1D] (H-[dA][dI][dK][dI][dR][dK][dL][dF][dK][dK][dL][dL][dR]-NH2)
- MIC At NaCl [1]: 12.5 to 25 µg/mL
- MIC Without NaCl [1]: 3.125 to 6.25 µg/mL
